ChEMBL document CHEMBL1154899, “Synthesis and biological evaluation of caffeic acid 3,4-dihydroxyphenethyl ester” (J Nat Prod, 2010)

Tests used:
Type in all cases: functional
[1] = test system: EKVX; experiment: Antiproliferative activity against human EKVX cells assessed as cell growth at 50 uM by SRB assay; conditions: read-out: Activity
[2] = test system: SF-539; experiment: Antiproliferative activity against human SF539 cells assessed as cell growth at 50 uM by SRB assay; conditions: read-out: Activity
[3] = test system: SNB-19; experiment: Antiproliferative activity against human SNB19 cells assessed as cell growth at 50 uM by SRB assay; conditions: read-out: Activity
[4] = test system: Malme-3M; experiment: Antiproliferative activity against human MALME-3M cells assessed as cell growth at 50 uM by SRB assay; conditions: read-out: Activity
[5] = test system: SK-MEL-2; experiment: Antiproliferative activity against human SK-MEL-2 cells assessed as cell growth at 50 uM by SRB assay; conditions: read-out: Activity
[6] = test system: SF-268; experiment: Antiproliferative activity against human SF268 cells assessed as cell growth at 5 uM by SRB assay; conditions: read-out: Activity
[7] = test system: SNB-75; experiment: Antiproliferative activity against human SNB75 cells assessed as cell growth at 5 uM by SRB assay; conditions: read-out: Activity
[8] = test system: SK-MEL-28; experiment: Antiproliferative activity against human SK-MEL-28 cells assessed as cell growth at 5 uM by SRB assay; conditions: read-out: Activity
[9] = test system: IGROV-1; experiment: Antiproliferative activity against human IGROV1 cells assessed as cell growth at 5 uM by SRB assay; conditions: read-out: Activity
[10] = test system: ACHN; experiment: Antiproliferative activity against human ACHN cells assessed as cell growth at 5 uM by SRB assay; conditions: read-out: Activity
[11] = test system: RXF 393; experiment: Antiproliferative activity against human RXF393 cells assessed as cell growth at 5 uM by SRB assay; conditions: read-out: Activity
[12] = test system: NCI/ADR-RES; experiment: Antiproliferative activity against human NCI/ADR-RES cells assessed as cell growth at 50 uM by SRB assay; conditions: read-out: Activity
[13] = test system: 786-0; experiment: Antiproliferative activity against human 786-0 cells assessed as cell growth at 500 uM by SRB assay; conditions: read-out: Activity
[14] = test system: TK-10; experiment: Antiproliferative activity against human TK10 cells assessed as cell growth at 500 uM by SRB assay; conditions: read-out: Activity
[15] = test system: K562; experiment: Antiproliferative activity against human K562 cells assessed as cell growth at […] by SRB assay; conditions: read-out: Activity
[16] = test system: EKVX; experiment: Antiproliferative activity against human EKVX cells assessed as cell growth at […] by SRB assay; conditions: read-out: Activity
[17] = test system: T47D; experiment: Antiproliferative activity against human T47D cells assessed as cell growth at 5 uM by SRB assay; conditions: read-out: Activity
[18] = test system: HL-60(TB); experiment: Antiproliferative activity against human HL-60(TB) cells assessed as cell growth at 50 uM by SRB assay; conditions: read-out: Activity
[19] = test system: MCF7; experiment: Antiproliferative activity against human MCF7 cells assessed as cell growth at 5 mM by SRB assay; conditions: read-out: Activity
[20] = test system: SW-620; experiment: Antiproliferative activity against human SW620 cells assessed as cell growth at 5 mM by SRB assay; conditions: read-out: Activity
[21] = Antiproliferative activity against human […] cells assessed as cell growth at 500 uM by SRB assay; conditions: read-out: Activity
[22] = test system: SNB-19; experiment: Antiproliferative activity against human SNB19 cells assessed as cell growth at 500 uM by SRB assay; conditions: read-out: Activity
[23] = Antiproliferative activity against human […] cells by SRB assay
[24] = test system: HOP-92; experiment: Antiproliferative activity against human HOP92 cells by SRB assay
[25] = test system: NCI-H522; experiment: Antiproliferative activity against human NCI-H522 cells by SRB assay
[26] = test system: HCT-15; experiment: Antiproliferative activity against human HCT15 cells by SRB assay
[27] = test system: UACC-62; experiment: Antiproliferative activity against human UACC62 cells by SRB assay
[28] = test system: 786-0; experiment: Antiproliferative activity against human 786-0 cells by SRB assay
[29] = test system: MCF7; experiment: Antiproliferative activity against human MCF7 cells by SRB assay
[30] = test system: NCI/ADR-RES; experiment: Antiproliferative activity against human NCI/ADR-RES cells by SRB assay
[31] = test system: MDA-MB-231; experiment: Antiproliferative activity against human MDA-MB-231 cells by SRB assay
[32] = test system: BT-549; experiment: Antiproliferative activity against human BT549 cells by SRB assay
[33] = test system: T47D; experiment: Antiproliferative activity against human T47D cells by SRB assay
[34] = test system: UACC-257; experiment: Antiproliferative activity against human UACC257 cells assessed as cell growth at 0.5 uM by SRB assay; conditions: read-out: Activity
[35] = test system: ACHN; experiment: Antiproliferative activity against human ACHN cells assessed as cell growth at 0.5 uM by SRB assay; conditions: read-out: Activity
[36] = test system: HL-60(TB); experiment: Antiproliferative activity against human HL-60(TB) cells assessed as cell growth at 0.5 uM by SRB assay; conditions: read-out: Activity
[37] = Antiproliferative activity against human […] cells assessed as cell growth at 0.5 uM by SRB assay; conditions: read-out: Activity
[38] = test system: EKVX; experiment: Antiproliferative activity against human EKVX cells assessed as cell growth at 0.5 uM by SRB assay; conditions: read-out: Activity
[39] = test system: SF-539; experiment: Antiproliferative activity against human SF539 cells assessed as cell growth at 0.5 uM by SRB assay; conditions: read-out: Activity
[40] = read-out: LC50 (the source's name)
[41] = read-out: pLC50 (the source's name) (converted)

## O=C(/C=C/c1ccc(O)c(O)c1)OCCc1ccc(O)c(O)c1
[1]
  growth at 50 µM: 88%
[2]
  growth at 50 µM: 89%
[3]
  growth at 50 µM: 94%
[4]
  growth at 50 µM: 102%
[5]
  growth at 50 µM: 91%
[6]
  growth at 5 µM: 91%
[7]
  growth at 5 µM: 75%
[8]
  growth at 5 µM: 89%
[9]
  growth at 5 µM: 102%
[10]
  growth at 5 µM: 95%
[11]
  growth at 5 µM: 84%
[12]
  growth at 50 µM: 99%
[13]
  growth at 500 µM: 81%
[14]
  growth at 500 µM: 81%
[15]
  growth: -8%
[16]
  growth: 19%
[17]
  growth at 5 µM: 102%
[18]
  growth at 50 µM: 82%
[19]
  growth at 5000 µM: 5%
[20]
  growth at 5000 µM: 19%
[21]
  growth at 500 µM: 11%
[22]
  growth at 500 µM: 79%
[23]; read-out: GI50
  GI50: 0.63 µM
[23]; [40]
  CC50: > 50 µM
[23]; read-out: TGI
  TGI: 8.48 µM
[23]; read-out: pGI50 (converted)
  GI50: 0.631 µM
[23]; [41]
  CC50: > 50.1 µM
[23]; read-out: pTGI (converted)
  TGI: 8.51 µM
[24]; read-out: GI50
  GI50: 0.79 µM
[24]; [40]
  CC50: > 50 µM
[24]; read-out: TGI
  TGI: 16.8 µM
[24]; read-out: pGI50 (converted)
  GI50: 0.794 µM
[24]; [41]
  CC50: > 50.1 µM
[24]; read-out: pTGI (converted)
  TGI: 17 µM
[25]; read-out: GI50
  GI50: 1.26 µM
[25]; [40]
  CC50: > 50 µM
[25]; read-out: TGI
  TGI: 8.61 µM
[25]; read-out: pGI50 (converted)
  GI50: 1.26 µM
[25]; [41]
  CC50: > 50.1 µM
[25]; read-out: pTGI (converted)
  TGI: 8.91 µM
[26]; read-out: GI50
  GI50: 2.25 µM
[26]; [40]
  CC50: > 50 µM
[26]; read-out: TGI
  TGI: > 50 µM
[26]; read-out: pGI50 (converted)
  GI50: 1.41 µM
[26]; [41]
  CC50: > 50.1 µM
[26]; read-out: pTGI
  TGI: > 50.1 µM
[27]; read-out: GI50
  GI50: 5.33 µM
[27]; [40]
  CC50: > 50 µM
[27]; read-out: TGI
  TGI: 38.3 µM
[27]; read-out: pGI50 (converted)
  GI50: 5.37 µM
[27]; [41]
  CC50: > 50.1 µM
[27]; read-out: pTGI (converted)
  TGI: 38 µM
[28]; read-out: GI50
  GI50: 13.5 µM
[28]; [40]
  CC50: > 50 µM
[28]; read-out: TGI
  TGI: > 50 µM
[28]; read-out: pGI50 (converted)
  GI50: 13.5 µM
[28]; [41]
  CC50: > 50.1 µM
[28]; read-out: pTGI
  TGI: > 50.1 µM
[29]; read-out: GI50
  GI50: 3.86 µM
[29]; [40]
  CC50: > 50 µM
[29]; read-out: TGI
  TGI: > 50 µM
[29]; read-out: pGI50 (converted)
  GI50: 3.89 µM
[29]; [41]
  CC50: > 50.1 µM
[29]; read-out: pTGI
  TGI: > 50.1 µM
[30]; read-out: GI50
  GI50: 10.9 µM
[30]; [40]
  CC50: > 50 µM
[30]; read-out: TGI
  TGI: 44.9 µM
[30]; read-out: pGI50 (converted)
  GI50: 10.5 µM
[30]; [41]
  CC50: > 50.1 µM
[30]; read-out: pTGI (converted)
  TGI: 44.7 µM
[31]; read-out: GI50
  GI50: 11.1 µM
[31]; [40]
  CC50: > 50 µM
[31]; read-out: TGI
  TGI: > 50 µM
[31]; read-out: pGI50 (converted)
  GI50: 10.5 µM
[31]; [41]
  CC50: > 50.1 µM
[31]; read-out: pTGI
  TGI: > 50.1 µM
[32]; read-out: GI50
  GI50: 8.67 µM
[32]; [40]
  CC50: > 50 µM
[32]; read-out: TGI
  TGI: > 50 µM
[32]; read-out: pGI50 (converted)
  GI50: 8.32 µM
[32]; [41]
  CC50: > 50.1 µM
[32]; read-out: pTGI
  TGI: > 50.1 µM
[33]; read-out: GI50
  GI50: 11.3 µM
[33]; [40]
  CC50: > 50 µM
[33]; read-out: TGI
  TGI: > 50 µM
[33]; read-out: pGI50 (converted)
  GI50: 11.2 µM
[33]; [41]
  CC50: > 50.1 µM
[33]; read-out: pTGI
  TGI: > 50.1 µM
[34]
  growth at 0.5 µM: 93%
[35]
  growth at 0.5 µM: 98%
[36]
  growth at 0.5 µM: 94%
[37]
  growth at 0.5 µM: 86%
[38]
  growth at 0.5 µM: 88%
[39]
  growth at 0.5 µM: 90%
